Data on one substance can be found in patent US5919761A, “Peptides for heparin and low molecular weight heparin anticoagulation reversal” (The Board of Regents of the University of Michigan, priority 1995, dated 1999).

Series [1] can be described thus: Platelet and white blood cell count after LMWH reversal, canine study. The format is in vivo. The note with it: dogs, Logiparin. The procedure: In addition to the measurements reported on Table 6, studies were conducted to measure the activated partial thromboplastin time (aPTT), platelet count, and white blood cell count. […] However, the [+18B] variant produced greater aPTT reversal than protamine at the 3, 10 and 30 minute measurements (64%, 95%, and 93%, respectively, as compared to 50%, 83%, and 78%, respectively, for protamine).

Series [2] in a line: Platelet count, leukocyte count and bleeding time after LMWH reversal at different rates, canine study. It counts as in vivo, dogs.
Procedure: The anticoagulation-reversing agents were administered rapidly over 10 seconds to maximize hemodynamic effects or more slowly over a 3 minute interval. Changes in LMWH anticoagulation occurring from metabolism alone were determined in a separate group of dogs not given any reversal agent.
Series [3] in a line: Percent change in platelet count after standard heparin reversal, cell adhesion ligand analogs, canine study. It counts as in vivo. The settings on record: dogs, agent over 10 seconds. As to the method:
In addition to hemodynamic changes, Table 15 lists the percent change in platelet count following administration of n-protamine and the selected variants, as well as the factor Xa and factor IIa reversal, as a percent change at 3 minutes post administration of the compound.

Series [4] deals with standard, unfractionated heparin. Put plainly: Percent reversal of standard heparin anticoagulation by variant peptides and protamine, in vivo canine study, coagulation tests. Further details: species or system dogs. The settings on record: for Percent reversal of heparin anticoagulation, ACT: dogs, heparin 150 IU/kg IV, agent 1.5 mg/kg IV over 10 seconds. As to the method:
Data are expressed as a mean ±1 SD. Statistical analysis using linear regression for determination of correlation coefficients, and analysis of variance (ANOVA) or unpaired two-way Student's t-test; p<0.05 was accepted as statistically significant.
Anticoagulation reversal was assessed by a number of standard coagulation tests performed upon samples of venous blood: activated clotting time (ACT), prothrombin time (PT), activated partial thromboplastin time (aPTT), thrombin clotting time (TCT), heparin concentration by assay for FXa inhibitory activity (FXa), white cell count (WBC), and platelet counts (PLT). Measurements were made 3 minutes prior to heparin reversal (baseline) and 3 minutes and 30 minutes post-administration of the heparin reversal agent. The "Heparin" row sets forth the observed reversal as a consequence of expected heparin metabolism or degradation alone.

[5] abbreviates: dogs, Logiparin, administered over 3 min.

As to “PR4 S3 RPVR5 PRVSR6 G2 R4 [Protamine [+21], reference compound]”, the “mean decline in platelet count” value in series [1] is -43%. The “Maximal decline in leukocyte count” value in series [2] (dogs, Logiparin, administered over 10 sec) is reported as -3%. In addition, in series [2] (setting [5]), the “Maximal decline in leukocyte count” value is listed as -26% and the Maximal thrombocytopenia is on record as -32%. Besides, the bleeding time in series [2] (selected animals, given over a 3 minute interval) was at most 8 min. Moreover, in series [3], the “Platelet (percent change in platelet count)” value is -54%. The “Percent reversal of heparin anticoagulation, ACT” value in series [4] (3 min post-administration) was 102%. Also, the “Percent reversal of heparin anticoagulation, ACT” value in series [4] (30 min) came out at 90%. Besides, in series [4] (same study, 3 min), the “Percent reversal of heparin anticoagulation, APTT” value came out at 100%; the “Percent reversal of heparin anticoagulation, FNa” value stood at 102%; the “Percent reversal of heparin anticoagulation, FXa” value was found to be 101%; the “Percent reversal of heparin anticoagulation, PT” value stood at 84%. Further, the “Percent reversal of heparin anticoagulation, TCT” value in series [4] (same study, 3 min) is recorded as 101%. In series [4] (same study, 30 min), the “Percent reversal of heparin anticoagulation, APTT” value turned out to be 127%; the “Percent reversal of heparin anticoagulation, FXa” value is 96%; the “Percent reversal of heparin anticoagulation, PT” value worked out at 88%; the “Percent reversal of heparin anticoagulation, TCT” value came to 100%.
